According to paper PMC11882969 (Nature Communications, 2025):
Several values for one entry are separate records, joined by “and”; a condition that tells them apart may be missing. Equal entries are not always repeated.

How the values were obtained:
Assay type in all cases: cell-based
[1] = target: panel of 320 non-olfactory GPCRs (Homo sapiens, UniProt Q8NFJ6)
[2] = target: panel of 320 non-olfactory GPCRs (Homo sapiens, UniProt O15354)
[3] = target: panel of 320 non-olfactory GPCRs (Homo sapiens, UniProt P32745)
[4] = target: panel of 320 non-olfactory GPCRs (Homo sapiens, UniProt O95838)
[5] = target: panel of 320 non-olfactory GPCRs (Homo sapiens, UniProt O00222)
[6] = target: panel of 320 non-olfactory GPCRs (Homo sapiens, UniProt P28566)
[7] = target: panel of 320 non-olfactory GPCRs (Homo sapiens, UniProt Q15761)
[8] = target: panel of 320 non-olfactory GPCRs (Homo sapiens, UniProt P29275)
[9] = target: panel of 320 non-olfactory GPCRs (Homo sapiens, UniProt P30872)
[10] = target: panel of 320 non-olfactory GPCRs (Homo sapiens, UniProt Q99680)
[11] = target: panel of 320 non-olfactory GPCRs (Homo sapiens, UniProt P43220)
[12] = target: panel of 320 non-olfactory GPCRs (Homo sapiens, UniProt P51810)
[13] = target: panel of 320 non-olfactory GPCRs (Homo sapiens, UniProt P46093)
[14] = target: panel of 320 non-olfactory GPCRs (Homo sapiens, UniProt P49190)
[15] = target: panel of 320 non-olfactory GPCRs (Homo sapiens, UniProt Q9BZJ6)
[16] = target: panel of 320 non-olfactory GPCRs (Homo sapiens, UniProt P08173)
[17] = target: panel of 320 non-olfactory GPCRs (Homo sapiens, UniProt Q8TDS4)
[18] = target: panel of 320 non-olfactory GPCRs (Homo sapiens, UniProt P16473)
[19] = target: panel of 320 non-olfactory GPCRs (Homo sapiens, UniProt P48039)
[20] = target: panel of 320 non-olfactory GPCRs (Homo sapiens, UniProt Q9NS66)
[21] = target: panel of 320 non-olfactory GPCRs (Homo sapiens, UniProt Q8TDV2)
[22] = target: panel of 320 non-olfactory GPCRs (Homo sapiens, UniProt Q9GZN0)
[23] = target: panel of 320 non-olfactory GPCRs (Homo sapiens, UniProt Q99677)
[24] = target: panel of 320 non-olfactory GPCRs (Homo sapiens, UniProt P32245)
[25] = target: panel of 320 non-olfactory GPCRs (Homo sapiens, UniProt O15552)
[26] = target: panel of 320 non-olfactory GPCRs (Homo sapiens, UniProt Q15743)
[27] = target: panel of 320 non-olfactory GPCRs (Homo sapiens, UniProt Q86VZ1)
[28] = target: panel of 320 non-olfactory GPCRs (Homo sapiens, UniProt P34972)
[29] = target: panel of 320 non-olfactory GPCRs (Homo sapiens, UniProt Q9NS75)
[30] = target: panel of 320 non-olfactory GPCRs (Homo sapiens, UniProt P30989)
[31] = target: panel of 320 non-olfactory GPCRs (Homo sapiens, UniProt P37288)
[32] = target: panel of 320 non-olfactory GPCRs (Homo sapiens, UniProt P32249)
[33] = target: panel of 320 non-olfactory GPCRs (Homo sapiens, UniProt Q13258)
[34] = target: panel of 320 non-olfactory GPCRs (Homo sapiens, UniProt P41595)
[35] = target: panel of 320 non-olfactory GPCRs (Homo sapiens, UniProt Q86Y34)
[36] = target: panel of 320 non-olfactory GPCRs (Homo sapiens, UniProt P28223)
[37] = target: panel of 320 non-olfactory GPCRs (Homo sapiens, UniProt Q92633)
Note: test concentration or dose not given here.

Chain of panel of 320 non-olfactory GPCRs (Homo sapiens, UniProt O95838) (O95838 whole entry): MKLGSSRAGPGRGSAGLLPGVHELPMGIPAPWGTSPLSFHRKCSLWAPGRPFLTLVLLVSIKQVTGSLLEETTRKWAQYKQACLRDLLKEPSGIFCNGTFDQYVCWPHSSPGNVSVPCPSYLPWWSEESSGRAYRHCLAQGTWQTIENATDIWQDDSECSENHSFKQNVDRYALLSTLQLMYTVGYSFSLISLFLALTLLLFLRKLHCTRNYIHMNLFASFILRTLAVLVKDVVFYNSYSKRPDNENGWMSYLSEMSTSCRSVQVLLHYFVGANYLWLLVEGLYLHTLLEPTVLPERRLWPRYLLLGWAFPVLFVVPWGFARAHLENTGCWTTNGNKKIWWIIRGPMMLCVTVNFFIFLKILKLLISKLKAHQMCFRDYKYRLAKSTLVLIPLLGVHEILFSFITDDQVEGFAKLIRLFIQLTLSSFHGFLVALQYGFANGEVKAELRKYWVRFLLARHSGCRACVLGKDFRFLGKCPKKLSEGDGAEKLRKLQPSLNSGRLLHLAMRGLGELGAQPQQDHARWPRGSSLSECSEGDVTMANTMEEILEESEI
Chain of panel of 320 non-olfactory GPCRs (Homo sapiens, UniProt Q9NS66) (Q9NS66 whole entry): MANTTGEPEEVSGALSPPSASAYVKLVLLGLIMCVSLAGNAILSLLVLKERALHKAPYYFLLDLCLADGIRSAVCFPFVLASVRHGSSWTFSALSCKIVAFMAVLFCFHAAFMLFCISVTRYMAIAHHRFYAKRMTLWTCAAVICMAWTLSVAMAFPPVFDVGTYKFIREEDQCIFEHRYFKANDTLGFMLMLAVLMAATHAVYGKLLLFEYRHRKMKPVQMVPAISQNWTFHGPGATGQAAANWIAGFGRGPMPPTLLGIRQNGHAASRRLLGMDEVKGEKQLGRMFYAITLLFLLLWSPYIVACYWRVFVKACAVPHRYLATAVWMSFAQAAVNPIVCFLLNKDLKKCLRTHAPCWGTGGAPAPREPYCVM
Chain of panel of 320 non-olfactory GPCRs (Homo sapiens, UniProt Q13258) (Q13258 whole entry): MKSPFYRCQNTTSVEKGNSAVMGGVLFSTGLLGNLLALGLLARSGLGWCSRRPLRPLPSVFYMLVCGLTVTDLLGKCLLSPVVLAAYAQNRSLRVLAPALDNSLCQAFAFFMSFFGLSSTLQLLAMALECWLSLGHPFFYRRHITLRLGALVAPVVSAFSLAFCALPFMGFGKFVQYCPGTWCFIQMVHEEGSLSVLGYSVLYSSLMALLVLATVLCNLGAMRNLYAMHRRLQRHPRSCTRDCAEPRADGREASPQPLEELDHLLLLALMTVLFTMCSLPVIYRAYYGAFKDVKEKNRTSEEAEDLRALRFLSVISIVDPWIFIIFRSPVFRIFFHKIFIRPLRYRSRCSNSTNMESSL
Chain of panel of 320 non-olfactory GPCRs (Homo sapiens, UniProt P28223) (P28223 whole entry): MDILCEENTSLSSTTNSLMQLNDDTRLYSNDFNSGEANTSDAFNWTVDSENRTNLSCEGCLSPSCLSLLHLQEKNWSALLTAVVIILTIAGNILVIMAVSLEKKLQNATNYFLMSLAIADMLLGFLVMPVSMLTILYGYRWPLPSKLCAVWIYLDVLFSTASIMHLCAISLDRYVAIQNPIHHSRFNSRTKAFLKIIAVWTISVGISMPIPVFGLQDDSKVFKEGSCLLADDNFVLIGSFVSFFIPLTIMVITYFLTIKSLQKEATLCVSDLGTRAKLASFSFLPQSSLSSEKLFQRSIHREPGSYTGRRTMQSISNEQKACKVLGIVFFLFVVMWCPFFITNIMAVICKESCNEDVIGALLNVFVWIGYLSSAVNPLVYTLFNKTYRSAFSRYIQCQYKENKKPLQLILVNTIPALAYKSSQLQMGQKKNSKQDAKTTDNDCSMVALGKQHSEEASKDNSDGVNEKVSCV
Chain of panel of 320 non-olfactory GPCRs (Homo sapiens, UniProt Q99677) (Q99677 whole entry): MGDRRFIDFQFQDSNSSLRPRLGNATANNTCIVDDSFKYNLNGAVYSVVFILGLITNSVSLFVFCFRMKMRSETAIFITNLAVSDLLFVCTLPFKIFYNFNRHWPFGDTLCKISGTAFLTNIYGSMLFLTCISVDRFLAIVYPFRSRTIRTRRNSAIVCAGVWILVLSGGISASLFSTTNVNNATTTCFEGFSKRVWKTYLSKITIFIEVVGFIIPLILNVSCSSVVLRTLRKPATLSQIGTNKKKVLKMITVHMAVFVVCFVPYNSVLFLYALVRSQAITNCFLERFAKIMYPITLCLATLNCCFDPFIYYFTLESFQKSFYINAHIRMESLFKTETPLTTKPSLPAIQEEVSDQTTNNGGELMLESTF
Chain of panel of 320 non-olfactory GPCRs (Homo sapiens, UniProt Q99680) (Q99680 whole entry): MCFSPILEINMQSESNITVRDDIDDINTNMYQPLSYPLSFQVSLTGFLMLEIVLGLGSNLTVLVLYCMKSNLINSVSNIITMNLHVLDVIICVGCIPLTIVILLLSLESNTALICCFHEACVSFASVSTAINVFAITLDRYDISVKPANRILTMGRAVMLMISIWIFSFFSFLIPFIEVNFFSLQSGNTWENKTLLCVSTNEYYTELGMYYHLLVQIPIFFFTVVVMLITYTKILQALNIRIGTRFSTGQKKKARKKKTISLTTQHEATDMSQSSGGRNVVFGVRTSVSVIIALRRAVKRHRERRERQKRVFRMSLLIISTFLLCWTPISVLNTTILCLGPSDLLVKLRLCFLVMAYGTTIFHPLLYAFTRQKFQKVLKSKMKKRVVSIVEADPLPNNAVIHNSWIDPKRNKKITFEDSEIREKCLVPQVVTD
Chain of panel of 320 non-olfactory GPCRs (Homo sapiens, UniProt P28566) (P28566 whole entry): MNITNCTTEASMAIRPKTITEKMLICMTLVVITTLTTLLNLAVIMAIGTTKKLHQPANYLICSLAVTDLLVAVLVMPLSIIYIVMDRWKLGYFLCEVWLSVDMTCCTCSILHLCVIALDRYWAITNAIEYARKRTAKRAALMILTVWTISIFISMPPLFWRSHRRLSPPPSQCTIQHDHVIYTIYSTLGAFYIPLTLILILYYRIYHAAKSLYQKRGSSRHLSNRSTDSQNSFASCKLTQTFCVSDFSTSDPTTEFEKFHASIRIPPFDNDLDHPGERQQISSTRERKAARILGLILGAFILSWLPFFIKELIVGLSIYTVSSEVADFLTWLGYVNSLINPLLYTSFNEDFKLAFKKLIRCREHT
Chain of panel of 320 non-olfactory GPCRs (Homo sapiens, UniProt P32745) (P32745 whole entry): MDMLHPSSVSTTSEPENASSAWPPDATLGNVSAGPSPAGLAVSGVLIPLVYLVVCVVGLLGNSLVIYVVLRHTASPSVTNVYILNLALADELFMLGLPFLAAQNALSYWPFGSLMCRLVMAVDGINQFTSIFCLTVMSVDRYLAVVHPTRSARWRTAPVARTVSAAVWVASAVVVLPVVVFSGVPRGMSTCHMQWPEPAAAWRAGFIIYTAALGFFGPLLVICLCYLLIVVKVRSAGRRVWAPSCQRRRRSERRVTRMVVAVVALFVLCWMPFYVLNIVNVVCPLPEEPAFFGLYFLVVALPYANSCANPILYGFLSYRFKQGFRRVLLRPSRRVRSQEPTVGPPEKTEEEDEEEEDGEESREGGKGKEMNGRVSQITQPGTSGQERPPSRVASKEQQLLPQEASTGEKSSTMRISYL
Chain of panel of 320 non-olfactory GPCRs (Homo sapiens, UniProt Q8TDS4) (Q8TDS4 whole entry): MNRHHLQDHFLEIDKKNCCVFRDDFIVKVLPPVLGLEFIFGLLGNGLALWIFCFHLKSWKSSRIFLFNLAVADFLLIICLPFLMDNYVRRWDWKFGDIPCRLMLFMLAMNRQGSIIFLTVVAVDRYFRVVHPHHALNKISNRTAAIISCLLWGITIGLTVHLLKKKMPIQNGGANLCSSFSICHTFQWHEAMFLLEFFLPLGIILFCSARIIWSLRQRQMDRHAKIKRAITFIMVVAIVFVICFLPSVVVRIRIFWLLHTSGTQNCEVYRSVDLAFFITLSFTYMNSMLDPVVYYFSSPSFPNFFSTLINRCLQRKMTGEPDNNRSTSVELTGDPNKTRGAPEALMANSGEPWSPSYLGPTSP
Chain of panel of 320 non-olfactory GPCRs (Homo sapiens, UniProt O15354) (O15354 27-613): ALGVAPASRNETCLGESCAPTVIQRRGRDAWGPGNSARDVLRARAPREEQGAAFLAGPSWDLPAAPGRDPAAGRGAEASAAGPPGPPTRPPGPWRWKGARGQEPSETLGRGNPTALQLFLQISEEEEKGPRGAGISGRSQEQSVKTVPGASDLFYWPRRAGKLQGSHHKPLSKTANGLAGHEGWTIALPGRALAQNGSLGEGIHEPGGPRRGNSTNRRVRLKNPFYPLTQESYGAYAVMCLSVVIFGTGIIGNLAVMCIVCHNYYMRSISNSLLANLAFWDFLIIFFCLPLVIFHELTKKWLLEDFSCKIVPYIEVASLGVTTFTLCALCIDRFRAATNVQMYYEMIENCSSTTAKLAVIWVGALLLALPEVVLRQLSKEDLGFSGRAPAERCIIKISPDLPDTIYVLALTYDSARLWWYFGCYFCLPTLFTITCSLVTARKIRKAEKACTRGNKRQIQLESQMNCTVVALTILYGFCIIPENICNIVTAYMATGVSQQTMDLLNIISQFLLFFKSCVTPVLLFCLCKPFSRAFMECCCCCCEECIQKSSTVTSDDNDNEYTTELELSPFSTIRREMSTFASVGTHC
Chain of panel of 320 non-olfactory GPCRs (Homo sapiens, UniProt O15552) (O15552 whole entry): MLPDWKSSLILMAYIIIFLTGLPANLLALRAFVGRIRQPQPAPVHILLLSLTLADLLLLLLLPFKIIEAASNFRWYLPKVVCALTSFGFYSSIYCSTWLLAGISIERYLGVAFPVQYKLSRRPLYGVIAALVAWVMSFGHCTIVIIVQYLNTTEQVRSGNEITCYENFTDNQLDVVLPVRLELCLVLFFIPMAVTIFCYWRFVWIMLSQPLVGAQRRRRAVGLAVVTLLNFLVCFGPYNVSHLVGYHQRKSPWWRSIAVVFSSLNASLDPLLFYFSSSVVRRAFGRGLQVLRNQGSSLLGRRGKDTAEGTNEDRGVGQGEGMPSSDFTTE

Structure (SMILES)	Fold of Basal RLU [1]	Fold of Basal RLU [2]	Fold of Basal RLU [3]	Fold of Basal RLU [4]	Fold of Basal RLU [5]	Fold of Basal RLU [6]	Fold of Basal RLU [7]	Fold of Basal RLU [8]	Fold of Basal RLU [9]	Fold of Basal RLU [10]	Fold of Basal RLU [11]	Fold of Basal RLU [12]	Fold of Basal RLU [13]	Fold of Basal RLU [14]	Fold of Basal RLU [15]	Fold of Basal RLU [16]	Fold of Basal RLU [17]	Fold of Basal RLU [18]	Fold of Basal RLU [19]	Fold of Basal RLU [20]	also measured
Cc1cc(C(=O)NC(C)(c2ccco2)c2ccco2)nn1-c1cccc(C(F)(F)F)c1 [‘4936]	0.9 and 1.3 and 0.8	1 fold and 1.1 fold and 1.2 fold	1.3 and 0.7 and 1	1 fold and 0.8 fold and 0.9 fold	0.3 and 0.6 and 0.4 and 0.5	1.4 fold and 1.3 fold and 1.5 fold and 2 fold	1.1 fold and 1 fold	0.9 and 0.7 and 1 and 0.6	1.3 fold and 1.2 fold and 1.5 fold and 1.8 fold	1.3 fold and 1 fold and 1.2 fold and 0.8 fold	0.9 and 0.7	1 and 0.7 and 1.1	0.9 fold and 1 fold and 0.8 fold	1 and 0.8 and 0.6	1.1 fold and 1.2 fold and 0.8 fold and 0.9 fold	0.7 and 1.1 and 1 and 0.6	1.2 fold and 1.1 fold and 1 fold	0.7 and 0.6 and 0.9	2.7 fold and 3.1 fold and 3.2 fold	1.1 and 1 and 1.7 and 1.3	Fold of Basal RLU [21]: 1 and 0.6 and 1.2; Fold of Basal RLU [22]: 1.5 and 1.4 and 1.6; Fold of Basal RLU [23]: 1.5 and 1.4 and 1.3 and 1; Fold of Basal RLU [24]: 1.9 fold and 1.8 fold and 1.7 fold and 1.6 fold; Fold of Basal RLU [25]: 1.3 and 1.4 and 1.2 and 1.1; Fold of Basal RLU [26]: 0.6 fold and 0.9 fold and 1 fold; Fold of Basal RLU [27]: 0.5 fold and 0.8 fold; Fold of Basal RLU [28]: 12.4 and 11.8 and 12 and 10.8; Fold of Basal RLU [29]: 1.5 and 1.7 and 1.4 and 2.3; Fold of Basal RLU [30]: 1.6 fold and 1.2 fold and 0.9 fold and 1 fold; Fold of Basal RLU [31]: 0.9 and 0.7 and 1.1 and 1; Fold of Basal RLU [32]: 0.9 and 1; Fold of Basal RLU [33]: 1.5 and 1.4 and 1.6 and 2.3; Fold of Basal RLU [34]: 1.1 fold and 1.6 fold and 2 fold; Fold of Basal RLU [35]: 2.2 and 2.3 and 1.6 and 3.1; Fold of Basal RLU [36]: 1.2 fold and 1 fold and 1.4 fold; Fold of Basal RLU [37]: 1.1 fold and 1 fold and 0.9 fold
COC(=O)[C@@](C)(NC(=O)c1cc(C)n(-c2cccc(C(F)(F)F)c2)n1)c1cccs1 [‘1350]	0.9 and 0.7 and 0.8 and 1.1	1 fold and 0.8 fold and 0.9 fold and 1.3 fold	0.8 and 0.9 and 0.7	1.1 fold and 1.5 fold and 1 fold and 0.8 fold	0.7 and 0.9 and 1.2 and 1.4	1.3 fold and 1.5 fold and 1.2 fold	1.2 fold and 1 fold	0.6 and 0.7 and 1.1	1.6 fold and 1.2 fold and 1.5 fold	0.7 fold and 0.9 fold and 0.8 fold	1.1 and 1 and 0.9 and 0.8	1.2 and 0.9 and 0.8 and 1	1.1 fold and 0.9 fold and 1 fold	1 and 0.7 and 0.9	1.1 fold and 1 fold and 0.8 fold	1 and 1.1 and 0.6 and 0.8	1 fold and 0.8 fold	0.7 and 0.8 and 0.6 and 0.9	2.2 fold and 2.3 fold and 2.4 fold	1.6 and 1.3 and 1.7	Fold of Basal RLU [21]: 1.2 and 0.6 and 0.9; Fold of Basal RLU [22]: 1.5 and 1.4 and 1.3; Fold of Basal RLU [23]: 1.3 and 1.1 and 1 and 0.9; Fold of Basal RLU [24]: 1 fold and 1.4 fold and 0.8 fold; Fold of Basal RLU [25]: 0.9 and 1.2; Fold of Basal RLU [26]: 0.9 fold and 1 fold; Fold of Basal RLU [27]: 0.6 fold and 1.1 fold and 0.8 fold and 0.7 fold; Fold of Basal RLU [28]: 8.2 and 8.7 and 8.6; Fold of Basal RLU [29]: 1.3 and 1.4 and 1.8; Fold of Basal RLU [30]: 1.5 fold and 1 fold and 1.1 fold; Fold of Basal RLU [31]: 0.7 and 1 and 0.9; Fold of Basal RLU [32]: 0.8 and 0.9 and 1; Fold of Basal RLU [33]: 0.9 and 0.6 and 0.8; Fold of Basal RLU [34]: 0.8 fold and 0.7 fold and 1 fold; Fold of Basal RLU [35]: 2.1 and 1.2 and 1.1; Fold of Basal RLU [36]: 0.9 fold and 0.8 fold; Fold of Basal RLU [37]: 1.3 fold and 1 fold and 1.2 fold
